Test results: patent US20130331427A1, “METHODS OF STIMULATING CELLULAR GROWTH, SYNAPTIC, REMODELING AND CONSOLIDATION OF LONG-TERM MEMORY” (Blanchette Rockefeller Neuroscience Institute, priority 2007, published 2013)

How the values were obtained:
Rat IGF-IR cells = experiment: overall protein synthesis, [35S]methionine incorporation; details: single 30-minute exposure to 0.28 nM
Description: [^35S]Methionine (9.1 μCi) was then added to the medium followed by analysis of radiolabel.

calexcitin = calexcitin immunostaining in Hermissenda B-photoreceptors; assay type: in vivo
Description: Following experimental treatments and testing, animals were rapidly decapitated, the central nervous systems (CNS) removed and then fixed in 4% para-formaldehyde in 20 mM Tris-buffered (pH 8) natural seawater (NSW; 0.2 μm micropore-filtered). The CNSs were then embedded in polyester wax (20), sectioned (6 μm) and immunostained using a biotinylated secondary antibody coupled to avidin-bound microperoxidase (ABC method, Vector), Aminoethylcarbazole (AEC) was used as the chromogen. The primary polyclonal antibody (designated 25U2) was raised in rabbits from the full length calexcitin protein extracted from squid optic lobes. Gray-scale intensity measures were done from digital photomicrographs on circumscribed cytoplasmic areas of the B-photoreceptors minus the same background area (non-staining neuropile).
Micrographs (A, B) depict representative tissue sections from Hermissenda eyes that were immunolabeled with the calexcitin polyclonal antibody, 25U2. […] Differences in staining intensities were measured and recorded as gray-scale intensities (0-256; B-cell cytoplasm minus tissue background).

PKCδ = target: T1, PKCδ (Rattus norvegicus, UniProt P09215); experiment: acute hippocampal slices, PKCδ activation; assay type: cell-based
T1 construct: from tissue; host or cells: hippocampal slices

PKC = PKC activity in cultured rat hippocampal H19-7/IGF-IR cells; assay type: cell-based
Description: Cells were homogenized by sonication (5 sec, 25 W) in 100 μl of 100 mM Tris-HCL pH 7.4 buffer containing 1 mM EGTA, 1 mM PMSF, and 50 mM NaF. Homogenate was transferred to a polyallomer centrifuge tube and was centrifuged at 100,000×g for 10 min at 4°. The supernatant was removed and immediately frozen on dry ice. The particulate fraction was resuspended by sonication in 100 μl of the same buffer and stored at −80°. To measure PKC, 10 μl of cytosol or particulate fraction was incubated for 15 min at 37° in the presence of 10 μM histones, 4.89 mM CaCl2, 1.2 μg/μl phosphatidyl-L-serine, 0.18 μg/μl 1.2-dioctanoyl-sn-glycerol, 10 mM MgCl2, 20 mM HEPES (pH 7.4), 0-8 mM EDTA, 4 mM EGTA, 4% glycerol, 8 μg/ml aprotinin, 8 μg/ml leupeptin, and 2 mM benzamidine. 0.5 μCi [γ^32-P]ATP was added and ^32P-phosphoprotein formation was measured by adsorption onto phosphocellulose as described previously (25). This assay was used with slight adjustments for either Hermissenda nervous system homogenates or cultured mammalian neuron homogenates.
Rat hippocampal H19-7/IGF-IR cells (ATCC) were plated onto poly-L-lysine coated plates and grown at 35° in DMEM/10% FCS for several days until approx. 50% coverage was obtained. The cells were then induced to differentiate into a neuronal phenotype by replacing the medium with 5 ml N2 medium containing 10 ng/ml basic fibroblast growth factor and grown in T-25 flasks at 39° C. (26). […] After a specified interval, the medium was removed and the cells were washed with PBS, removed by gentle scraping, and collected by centrifugation at 1000 rpm for 5 min.
These differentiate to have a neuronal phenotype when induced by basic fibroblast growth factor in N2 medium (26) and express a normal complement of neuronal proteins, including PKC.
Both the initial PKC activation and subsequent downregulation have been previously described and were confirmed by measurement of PKC activity in membrane and cytosol.

[1] = single dose 0.28 nM for 30 minutes

T1 sequence (P09215 whole entry): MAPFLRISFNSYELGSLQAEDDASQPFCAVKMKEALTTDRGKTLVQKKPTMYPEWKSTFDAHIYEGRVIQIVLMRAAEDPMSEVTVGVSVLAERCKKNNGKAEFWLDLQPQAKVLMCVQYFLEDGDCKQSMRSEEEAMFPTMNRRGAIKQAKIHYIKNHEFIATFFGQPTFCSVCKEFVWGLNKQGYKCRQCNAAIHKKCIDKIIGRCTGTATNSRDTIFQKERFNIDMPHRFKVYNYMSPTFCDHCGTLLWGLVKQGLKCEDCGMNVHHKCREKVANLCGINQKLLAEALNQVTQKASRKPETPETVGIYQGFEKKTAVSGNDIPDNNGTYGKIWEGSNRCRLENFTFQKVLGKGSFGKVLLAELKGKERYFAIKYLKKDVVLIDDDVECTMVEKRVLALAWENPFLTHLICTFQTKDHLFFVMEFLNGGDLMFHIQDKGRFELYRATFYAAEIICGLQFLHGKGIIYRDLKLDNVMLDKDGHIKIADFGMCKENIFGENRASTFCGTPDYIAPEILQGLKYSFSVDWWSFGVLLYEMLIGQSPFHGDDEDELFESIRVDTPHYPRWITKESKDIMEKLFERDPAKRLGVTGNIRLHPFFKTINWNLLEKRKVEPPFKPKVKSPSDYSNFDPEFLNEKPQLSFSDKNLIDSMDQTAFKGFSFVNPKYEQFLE

CCC/C=C/C=C/C(=O)O[C@H]1/C(=C/C(=O)OC)C[C@H]2C[C@H]([C@@H](C)O)OC(=O)C[C@H](O)C[C@@H]3C[C@H](OC(C)=O)C(C)(C)[C@](O)(C[C@@H]4C/C(=C/C(=O)OC)C[C@H](/C=C/C(C)(C)[C@]1(O)O2)O4)O3 [bryostatin, bryostatin-1]
increase of overall protein synthesis (Rat IGF-IR cells; by 79 hours): 60% | increase of overall protein synthesis (Rat IGF-IR cells; within 24 h): 20% | CE immunostaining (calexcitin; bryostatin alone, 24 hours after 1 exposure for four hours): not elevated | CE immunostaining (calexcitin; bryostatin alone, 24 hours after 2 exposures on two successive days): greater residual CE immunostaining | CE immunostaining (calexcitin; bryostatin plus 6 TE): comparable to that observed after 9 TE | increase of calexcitin levels (calexcitin; paired training (6PTE), bryostatin 0.25): greater than 4.3 × | rise in CE (calexcitin) (calexcitin; random training (4RTE), bryostatin 0.25): 2.0 | calexcitin level (calexcitin; two exposures on successive days 0.25 ng/ml, 2-paired TEs, vs 9-random TEs): significantly increased | activation of PKCδ (PKCδ): but not PKCδ | PKC activity, cytoplasmic fraction (PKC; exposed twice within a 2-hour period): significant reduction | membrane-bound PKC downregulation (PKC; second 30-minute exposure after a 2- to 4-hour delay): eliminated the significant downregulation | PKC activity, cytoplasmic fraction (PKC; second exposure 4 hours after the first): increased above baseline | membrane-bound PKC after the brief translocation (PKC; [1]): prolonged downregulation | translocation of PKC from the cytosol to the particulate fraction (PKC; [1]): approx 60% | PKC activity, cytoplasmic fraction (PKC; within the first 4 hours after exposure): no significant alteration
